From ChEMBL document CHEMBL4342455, “Benwamycins A-G, Trialkyl-Substituted Benzene Derivatives from a Soil-Derived Streptomyces” (J Nat Prod, 2020)
The source made the active and inactive calls. The rule behind the calls is not given here.

Experiments:
3T3-L1 [1] = test: Induction of glucose uptake in mature mouse 3T3L1 adipocytes assessed as [3H]2-deoxy-D-glucose uptake at 25 uM preincubated for 24 hrs followed by [3H]2-deoxy-D-glucose additon and measured after 10 mins by scintillation counting method relative to control; type: functional
T-cell = test: Immunosuppressive activity in anti-CD3/anti-CD28-stimulated human T cells assessed as reduction in cell viability after 96 hrs by CFSE dye based flow cytometric analysis; type: functional
[2] = Cytotoxicity against human naive T cells assessed as reduction in cell viability after 96 hrs by flow cytometric analysis; type: cell-based
3T3-L1 [3] = test: Induction of glucose uptake in mature mouse 3T3L1 adipocytes assessed as [3H]2-deoxy-D-glucose uptake at 10 uM preincubated for 24 hrs followed by [3H]2-deoxy-D-glucose additon and measured after 10 mins by scintillation counting method relative to control; type: functional

For `Cc1ccc([C@H](C)[C@@H](O)[C@H](C)[C@H](C)O)c(/C=C/CO)c1`, the Activity (3T3-L1 [1]) was “inactive”, the IC50 (T-cell) was 14.3 µM and the CC50 at 96 h [2] was greater than 80 µM.
With `CC(=O)[C@@H](C)[C@H](O)[C@@H](C)c1ccc(C)cc1/C=C/CO` the Activity (3T3-L1 [1]) was “inactive” and the Activity (T-cell) was “inactive”.
With `CCC1=CC(=O)[C@@H](C)[C@@H]([C@@H](C)c2ccc(CO)cc2/C=C/CO)O1` the Activity (3T3-L1 [1]) was “inactive” and the Activity (T-cell) was “inactive”.
With `CCC(=O)O[C@@H]([C@H](C)C(C)=O)[C@@H](C)c1ccc(CO)cc1/C=C/CO` the Activity (3T3-L1 [1]) was “inactive” and the Activity (T-cell) was “inactive”.
In the case of `CC(=O)OCc1ccc([C@H](C)[C@@H](O)[C@H](C)C(C)=O)c(/C=C/CO)c1`, the Activity (3T3-L1 [1]) is reported as 28.4% and the Activity (T-cell) is reported as “inactive”.
With `CC(=O)[C@@H](C)[C@H](O)[C@@H](C)c1ccc(C)cc1/C=C/C(=O)O` the Activity (3T3-L1 [1]) was “inactive” and the Activity (T-cell) was “inactive”.
In the case of `CCC(=O)O[C@@H]([C@H](C)C(C)=O)[C@@H](C)c1ccc(C)cc1/C=C/CO`, the Activity (3T3-L1 [1]) is reported as “inactive” and the Activity (T-cell) is reported as “inactive”.
For `C[C@@H]([C@H](O)[C@@H](C)c1ccc(CO)cc1/C=C/CO)[C@H](C)O`, the Activity (3T3-L1 [1]) was “inactive” and the Activity (T-cell) was “inactive”.
`CCC1=CC(=O)[C@@H](C)[C@@H]([C@@H](C)c2ccc(C)cc2/C=C/CO)O1` showed an Activity (3T3-L1 [1]) of 21.1%, an IC50 (T-cell) of 12.5 µM and a CC50 at 96 h [2] greater than 80 µM.
With `CC(=O)[C@@H](C)[C@H](O)[C@@H](C)c1ccc(CO)cc1/C=C/CO` the Activity (3T3-L1 [1]) was “inactive” and the Activity (T-cell) was “inactive”.
For `COc1ccc2cc3[n+](cc2c1OC)CCc1cc2c(cc1-3)OCO2` [BERBERINE], the Activity (3T3-L1 [3]) was 25.5%.
